Data from US7527975B2, “Determination of high lipophilicity values” (Hoffmann-La Roche Inc., priority 2005, dated 2009).

Assays:
[1] = known log D values from literature; sources a) MEDChem01, MEDChem03, b) calculated from logP and pKa, c) Winiwarter et al. 1998; cited from earlier work
[2] = DIFI-log D: octanol-impregnated PVDF membrane (DIFI-tubes) / buffer distribution, UV readout; conditions: for logD at 2 h: pH 7.4
Experimental: All compounds of the validation set were dissolved in dimethylsulfoxide at a concentration of 10 mM (DMSO-stock).
The experiment started with the accurate coating of 0,45 μm hydrophobic PVDF membranes (Immobilon-P PVDF (Millipore) and PVDF-Plus (Whatman, Headquater: 27 Great West Road, Brentford, Middlesex, TW8 9BW, UK), which were fixed on the bottom of the DI FI-tub es.
Each membrane is impregnated with exactly 1 μl octanol and 1μl DMSO-stock.
After a short incubation of 10 min the tubes with the coated membranes were connected to a 96-deepwell plate which had been prefilled with exactly 1600 μl of the selected buffer solution (50 mM TAPSO (FLUKA, BioChemika, ArtNo.93357), pH 7.4).
The plate was then sealed and shaken for two hours. During this time the substance was distributed between the membrane, the octanol and the buffer solution accordingly.
After the distribution equilibrium was reached (after 2 h) the tubes were carefully disassembled from the top of the deepwell plate in order to analyze the octanol phase which still stucks to the membrane.
Therefore, the remaining compound in the octanol phase was washed out with additional octanol as eluent. The concentration of the substance in the eluent was then determined by UV spectroscopy at absorption wavelengths between 250 and 450 nm.
In order to know the exact sample concentration before incubation with buffer a reference plate was generated under the same conditions as the described sample plate above. The reference plate was directly treated with the eluent and the resulted reference concentration in the octanol phase was measured by UV spectroscopy.
The lipophilicity value log D may be calculated from the analyzed sample concentration after incubation with buffer (Co) and the reference concentration before distribution (Cref).
Due to the fact, that all UV measurements were carried out under the same conditions, the concentration term were replaced by UV-absorption values (Abs) at the same wavelength.
In this equation, Vw is the volume of the aqueous phase was divided by the volume of the octanol phase Vo.
For each compounds three determinations were performed according to the described method above. The preparation of the reference and sample plate was performed manually.

| Compound | Lit. log D [1] | logD at 2 h [2] | DIFI-log D ([2]; 1 μl octanol on 0,45 μm PVDF membrane / 1600 μl 50 mM TAPSO pH 7.4, shaken 2 h, UV 250-450 nm, three determinations) |
| --- | --- | --- | --- |
| COc1ccc(CCN2CCC(Nc3nc4ccccc4n3Cc3ccc(F)cc3)CC2)cc1 [Astemizole] | 4.10 | 4.12 | – |
| COc1ccccc1OCCNCC(O)COc1cccc2[nH]c3ccccc3c12 (centres unmarked) [Carvedilol] | 3.37 | 3.38 | – |
| CN(C)CC/C=C1/c2ccccc2Sc2ccc(Cl)cc21 [Chlorprothixene] | 4.19 | 4.24 | – |
| Clc1ccccc1C(c1ccccc1)(c1ccccc1)n1ccnc1 [Clotrimazole] | 4.99 | 4.91 | – |
| C[C@@H]1C[C@H]2[C@@H]3CCC4=CC(=O)C=C[C@]4(C)[C@@]3(F)[C@@H](O)C[C@]2(C)[C@@]1(O)C(=O)CO [Dexamethasone] | – | – | 1.83 |
| COc1ccc([C@@H]2Sc3ccccc3N(CCN(C)C)C(=O)[C@@H]2OC(C)=O)cc1 [Diltiazem] | 2.32 | 2.33 | – |
| CCOC(=O)C1=C(C)NC(C)=C(C(=O)OC)C1c1cccc(Cl)c1Cl (centres unmarked) [Felodipine] | – | 4.84 | – |
| Clc1ccc(C(c2ccccc2Cl)C(Cl)Cl)cc1 (centres unmarked) [Mitotane] | 4.87 | 4.78 | – |
| COCCOC(=O)C1=C(C)NC(C)=C(C(=O)OC(C)C)C1c1cccc([N+](=O)[O-])c1 (centres unmarked) [Nimodipine] | 3.73 | 3.61 | – |
| C[C@]12CC[C@H]3[C@@H](CCC4=CC(=O)CC[C@@]43C)[C@@H]1CC[C@@H]2O [Testosterone] | – | 3.33 | – |
